In ChEMBL document CHEMBL1150051, “Antiviral (RNA) activity of selected Amaryllidaceae isoquinoline constituents and synthesis of related substances” (J Nat Prod, 1992):
Converted amounts (≈) assume the structure as drawn. The source made the active and inactive calls. The calls are words filed in the database; no cut-off is given here.

Key:
[1] = tested on: Mus musculus; assay: Toxicity in C57BL/6 mouse assessed as body weight loss at 40 mg/kg/day, sc once daily for 7 days; format: organism-based; parameters: route subcutaneous; conditions: in vivo, 168 h
[2] = tested on: Japanese encephalitis virus; assay: Antiviral activity against Japanese encephalitis virus Beijing infected in low viral dose challenge C57BL/6 mouse model assessed as average day of death at 40 mg/kg/day, sc once daily for 7 days administered 1 day before infection measured after 28 days post infection; format: functional; conditions: route subcutaneous
[3] = tested on: Japanese encephalitis virus; assay: Antiviral activity against Japanese encephalitis virus Beijing infected in low viral dose challenge C57BL/6 mouse model assessed as average day of death at 20 mg/kg/day, sc once daily for 7 days administered 1 day before infection measured after 28 days post infection; format: functional; conditions: route subcutaneous
[4] = tested on: Japanese encephalitis virus; assay: Antiviral activity against Japanese encephalitis virus Beijing infected in low viral dose challenge C57BL/6 mouse model assessed as average day of death at 10 mg/kg/day, sc once daily for 7 days administered 1 day before infection measured after 28 days post infection; format: functional; conditions: route subcutaneous
[5] = tested on: Japanese encephalitis virus; assay: Antiviral activity against Japanese encephalitis virus Beijing infected in low viral dose challenge C57BL/6 mouse model assessed as survival rate at 40 mg/kg/day, sc once daily for 7 days administered 1 day before infection measured after 28 days post infection relative to control; format: functional; conditions: route subcutaneous
[6] = tested on: Japanese encephalitis virus; assay: Antiviral activity against Japanese encephalitis virus Beijing infected in low viral dose challenge C57BL/6 mouse model assessed as survival rate at 20 mg/kg/day, sc once daily for 7 days administered 1 day before infection measured after 28 days post infection relative to control; format: functional; conditions: route subcutaneous
[7] = tested on: Japanese encephalitis virus; assay: Antiviral activity against Japanese encephalitis virus Beijing infected in low viral dose challenge C57BL/6 mouse model assessed as survival rate at 10 mg/kg/day, sc once daily for 7 days administered 1 day before infection measured after 28 days post infection relative to control; format: functional, organism-based
[8] = tested on: Japanese encephalitis virus; assay: Antiviral activity against Japanese encephalitis virus Nakayama infected in african green monkey Vero cells assessed as inhibition of virus-induced cytopathic effect by MTT assay; format: functional, organism-based; conditions: Japanese encephalitis virus, Nakayama, Vero; read-out: IC50
[9] = Therapeutic index, ratio of TC50 for african green monkey Vero cells to IC50 for Japanese encephalitis virus Nakayama; format: cell-based; conditions: read-out: TI
[10] = tested on: Yellow fever virus; assay: Antiviral activity against Yellow fever virus Ashibi infected in african green monkey Vero cells assessed as inhibition of virus-induced cytopathic effect by MTT assay; format: functional, organism-based; conditions: Yellow fever virus, Ashibi, Vero; read-out: IC50
[11] = Therapeutic index, ratio of TC50 for african green monkey Vero cells to IC50 for Yellow fever virus Ashibi; format: cell-based; conditions: read-out: TI
[12] = tested on: dengue virus type 4; assay: Antiviral activity against Dengue virus type 4 infected in african green monkey Vero cells after 6 days by plaque reduction assay; format: functional, organism-based; conditions: Dengue virus, Vero, 144 h; read-out: IC50
[13] = Therapeutic index, ratio of TC50 for african green monkey Vero cells to IC50 for Dengue type 4 virus; format: cell-based; conditions: read-out: TI
[14] = tested on: Venezuelan equine encephalitis virus; assay: Antiviral activity against Venezuelan equine encephalitis virus Trinidad donkey infected in african green monkey Vero cells assessed as inhibition of virus-induced cytopathic effect by MTT assay; format: functional, organism-based
[15] = tested on: Human immunodeficiency virus 1; assay: Antiviral activity against HIV1 by cells based assay; format: functional, organism-based
[16] = tested on: Vaccinia virus; assay: Antiviral activity against Vaccinia virus Lederle vaccine infected in african green monkey Vero cells assessed as inhibition of virus-induced cytopathic effect by MTT assay; format: functional, organism-based; conditions: Orthopoxvirus vaccinia
[17] = tested on: Punta Toro virus; assay: Antiviral activity against Punta Toro virus Adames infected in african green monkey Vero cells assessed as inhibition of virus-induced cytopathic effect by MTT assay; format: functional, organism-based; conditions: Punta Toro virus, Adames, Vero; read-out: IC50
[18] = Therapeutic index, ratio of TC50 for african green monkey Vero cells to IC50 for Punta toro virus Adames; format: cell-based; conditions: read-out: TI
[19] = tested on: Rift Valley fever virus; assay: Antiviral activity against Rift Valley fever virus infected in african green monkey Vero cells after 6 days by plaque reduction assay; format: functional, organism-based; conditions: Rift Valley fever virus, Vero, 144 h; read-out: IC50
[20] = Therapeutic index, ratio of TC50 for african green monkey Vero cells to IC50 for Rift valley fever virus; format: cell-based; conditions: read-out: TI
[21] = tested on: Sandfly fever Sicilian virus; assay: Antiviral activity against Sandfly fever sicilian virus infected in african green monkey Vero cells assessed as inhibition of virus-induced cytopathic effect by MTT assay; format: functional, organism-based; conditions: sandfly fever Sicilian virus, Vero; read-out: IC50
[22] = Therapeutic index, ratio of TC50 for african green monkey Vero cells to IC50 for Sandfly fever sicilian virus; format: cell-based; conditions: read-out: TI
[23] = tested on: Mus musculus; assay: Toxicity in C57BL/6 mouse assessed as average day of death at 2 mg/kg/day, sc once daily for 7 days; format: organism-based; parameters: route subcutaneous; conditions: in vivo, 168 h
[24] = tested on: Mus musculus; assay: Toxicity in C57BL/6 mouse assessed as mortality at 40 mg/kg/day, sc once daily for 7 days; format: organism-based; parameters: route subcutaneous; conditions: in vivo, 168 h
[25] = tested on: Mus musculus; assay: Toxicity in C57BL/6 mouse assessed as mortality at 20 mg/kg/day, sc once daily for 7 days; format: organism-based; parameters: route subcutaneous; conditions: in vivo, 168 h
[26] = tested on: Mus musculus; assay: Toxicity in C57BL/6 mouse assessed as mortality at 10 mg/kg/day, sc once daily for 7 days; format: organism-based; parameters: route subcutaneous; conditions: in vivo, 168 h

SMILES: O=C1N[C@H]2[C@H](O)[C@H](O)[C@@H](O)[C@H](O)[C@@H]2c2cc3c(cc21)OCO3
- Activity [1]: Toxic
- Activity [2]: 9.5 days
- Activity [3]: 15 days
- Activity [4]: 13.6 days
- Activity [5]: 80%
- Activity [6]: 60%
- Activity [7]: inactive
- IC50 [8]: 0.48 µg/mL (≈ 1.55 µM)
- selectivity ratio [9]: 5.9
- IC50 [10]: 0.4 µg/mL (≈ 1.29 µM)
- selectivity ratio [11]: 6.6
- IC50 [12]: 0.67 µg/mL (≈ 2.17 µM)
- selectivity ratio [13]: 3.7
- Activity [14]: inactive
- Activity [15]: inactive
- Activity [16]: inactive
- IC50 [17]: 0.66 µg/mL (≈ 2.13 µM)
- selectivity ratio [18]: 4.3
- IC50 [19]: 5.1 µg/mL (≈ 16.5 µM)
- selectivity ratio [20]: 4.3
- IC50 [21]: 1.7 µg/mL (≈ 5.5 µM)
- selectivity ratio [22]: 2.7
- Activity [23]: 28 days
- Activity [24]: Non-toxic
- Activity [25]: Non-toxic
- Activity [26]: Non-toxic
